Columns and labels:
[1] = target: Sigma non-opioid intracellular receptor 1 (Homo sapiens, UniProt Q99720); test: DRUGMATRIX: Sigma1 radioligand binding (ligand: [3H] Haloperidol); format: cell membranes, Jurkat, Membrane; settings: Not Active = under 50% inhibition at 10 µM
Cytochrome P450 2A6 = target: T1, Cytochrome P450 2A6 (Homo sapiens, UniProt P11509); settings: bti-tn-5b1-4; note: in other assays of this panel Not Active means under 50% inhibition at 10 µM
T1 sequence (P11509 whole entry): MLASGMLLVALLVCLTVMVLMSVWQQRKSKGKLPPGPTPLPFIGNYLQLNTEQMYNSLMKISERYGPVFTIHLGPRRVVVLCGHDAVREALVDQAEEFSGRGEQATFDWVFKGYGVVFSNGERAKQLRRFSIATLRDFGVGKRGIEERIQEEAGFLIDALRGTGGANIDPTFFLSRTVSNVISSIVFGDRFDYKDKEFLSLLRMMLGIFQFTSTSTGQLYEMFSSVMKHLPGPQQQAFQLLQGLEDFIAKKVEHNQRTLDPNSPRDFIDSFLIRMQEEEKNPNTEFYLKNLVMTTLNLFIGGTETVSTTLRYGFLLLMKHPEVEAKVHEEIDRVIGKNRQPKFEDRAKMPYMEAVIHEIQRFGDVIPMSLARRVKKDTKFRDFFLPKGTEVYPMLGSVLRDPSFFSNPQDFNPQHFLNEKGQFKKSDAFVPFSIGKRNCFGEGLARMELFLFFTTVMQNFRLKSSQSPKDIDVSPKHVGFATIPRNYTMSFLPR

[2] = DRUGMATRIX: GABAA, Flunitrazepam, Central radioligand binding (ligand: [3H] Flunitrazepam); format: cell membranes, Rattus norvegicus, Wistar, Brain, Membrane; settings: Not Active = under 50% inhibition at 10 µM
[3] = target: T2, Type-2 angiotensin II receptor (Homo sapiens, UniProt P50052); format: cell-based; settings: cho-k1; note: in other assays of this panel Not Active means under 50% inhibition at 10 µM
T2 sequence (P50052 whole entry): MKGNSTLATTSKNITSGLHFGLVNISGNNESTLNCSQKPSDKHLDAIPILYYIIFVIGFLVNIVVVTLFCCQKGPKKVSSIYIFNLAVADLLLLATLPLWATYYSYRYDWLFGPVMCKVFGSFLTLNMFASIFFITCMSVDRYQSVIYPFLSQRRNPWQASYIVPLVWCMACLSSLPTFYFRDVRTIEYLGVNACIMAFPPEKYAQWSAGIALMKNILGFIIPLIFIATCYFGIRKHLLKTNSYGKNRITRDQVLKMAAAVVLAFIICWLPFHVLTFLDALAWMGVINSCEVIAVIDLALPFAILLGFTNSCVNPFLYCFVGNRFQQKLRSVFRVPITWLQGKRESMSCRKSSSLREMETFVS

B2 bradykinin receptor = target: T3, B2 bradykinin receptor (Homo sapiens, UniProt P30411); format: cell membranes, Membrane; settings: chem-1; note: in other assays of this panel Not Active means under 50% inhibition at 10 µM
T3 sequence (P30411 whole entry): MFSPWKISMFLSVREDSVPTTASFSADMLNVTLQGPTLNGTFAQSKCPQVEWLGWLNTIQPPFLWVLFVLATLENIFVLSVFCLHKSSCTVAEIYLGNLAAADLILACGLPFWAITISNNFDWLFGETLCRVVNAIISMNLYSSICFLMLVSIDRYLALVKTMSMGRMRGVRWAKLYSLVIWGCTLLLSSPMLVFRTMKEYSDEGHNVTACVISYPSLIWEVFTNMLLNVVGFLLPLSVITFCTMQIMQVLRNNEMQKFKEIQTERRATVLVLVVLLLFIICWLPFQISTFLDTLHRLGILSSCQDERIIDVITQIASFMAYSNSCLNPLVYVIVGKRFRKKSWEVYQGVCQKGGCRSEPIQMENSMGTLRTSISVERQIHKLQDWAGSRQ

[4] = DRUGMATRIX: Sodium/nucleoside co-transporter radioligand binding (ligand: nitrobenzylthioinosine); format: cell membranes, Cavia porcellus, Dunkin-Hartley, Cerebral cortex, Membrane; settings: Not Active = under 50% inhibition at 10 µM
Glycine receptor = Glycine receptor (Rattus norvegicus, UniProt P22771+P24524+P07727+P20781); format: cell membranes, Wistar, Spinal cord, Membrane; note: in other assays of this panel Not Active means under 50% inhibition at 10 µM
D(4) dopamine receptor = target: T4, D(4) dopamine receptor (Homo sapiens, UniProt P21917); test: DRUGMATRIX: Dopamine D4.2 radioligand binding (ligand: [3H] Spiperone); format: cell membranes, CHO-K1, Membrane; settings: cho-k1; Not Active = under 50% inhibition at 10 µM
T4 sequence (P21917 whole entry): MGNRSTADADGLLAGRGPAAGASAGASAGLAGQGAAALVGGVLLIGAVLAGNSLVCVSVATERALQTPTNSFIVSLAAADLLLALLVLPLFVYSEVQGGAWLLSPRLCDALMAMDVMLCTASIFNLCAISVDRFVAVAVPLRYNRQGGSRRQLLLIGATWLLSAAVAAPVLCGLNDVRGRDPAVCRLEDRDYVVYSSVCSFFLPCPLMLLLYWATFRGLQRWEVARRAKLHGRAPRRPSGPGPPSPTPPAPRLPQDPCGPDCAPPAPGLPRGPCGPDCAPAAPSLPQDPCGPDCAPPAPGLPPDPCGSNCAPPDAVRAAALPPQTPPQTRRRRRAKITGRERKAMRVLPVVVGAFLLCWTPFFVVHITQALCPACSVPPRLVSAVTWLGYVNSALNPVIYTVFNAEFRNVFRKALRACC

[5] = target: T5, Alpha-1D adrenergic receptor (Homo sapiens, UniProt P25100); format: cell membranes, HEK293, Membrane; settings: hek293; note: in other assays of this panel Not Active means under 50% inhibition at 10 µM
T5 sequence (P25100 whole entry): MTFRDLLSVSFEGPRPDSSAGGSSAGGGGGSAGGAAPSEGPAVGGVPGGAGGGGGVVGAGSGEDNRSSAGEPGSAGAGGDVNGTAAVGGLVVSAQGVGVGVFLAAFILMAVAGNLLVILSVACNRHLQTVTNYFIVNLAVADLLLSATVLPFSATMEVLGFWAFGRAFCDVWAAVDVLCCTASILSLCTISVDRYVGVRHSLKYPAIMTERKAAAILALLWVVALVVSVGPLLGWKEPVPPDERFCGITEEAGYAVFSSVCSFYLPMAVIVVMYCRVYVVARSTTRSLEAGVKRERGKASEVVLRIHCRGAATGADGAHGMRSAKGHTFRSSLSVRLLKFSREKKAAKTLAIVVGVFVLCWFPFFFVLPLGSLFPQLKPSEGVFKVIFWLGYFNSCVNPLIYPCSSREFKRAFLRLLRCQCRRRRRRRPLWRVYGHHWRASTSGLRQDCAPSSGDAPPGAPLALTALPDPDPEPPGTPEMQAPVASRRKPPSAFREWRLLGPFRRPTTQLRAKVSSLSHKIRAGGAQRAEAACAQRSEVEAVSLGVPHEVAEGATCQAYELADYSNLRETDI

Chain of Sigma non-opioid intracellular receptor 1 (Q99720 whole entry): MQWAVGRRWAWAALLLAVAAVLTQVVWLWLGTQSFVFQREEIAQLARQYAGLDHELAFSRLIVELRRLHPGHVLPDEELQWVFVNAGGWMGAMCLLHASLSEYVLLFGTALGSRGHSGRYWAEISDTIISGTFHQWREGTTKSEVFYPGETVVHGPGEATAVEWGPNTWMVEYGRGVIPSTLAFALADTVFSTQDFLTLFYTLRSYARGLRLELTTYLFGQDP

Row | Compound | IC50 ([1]; jurkat) | IC50 (Cytochrome P450 2A6) | Ki (Cytochrome P450 2A6) | IC50 [2] | Ki [2] | IC50 [3] | IC50 (B2 bradykinin receptor) | IC50 [4] | Ki [4] | IC50 (Glycine receptor) | IC50 (D(4) dopamine receptor) | IC50 [5] | other results
1 | CC(C)(C)NCC(O)c1cc(O)cc(O)c1 (centres undefined) [TERBUTALINE] | Not Active | Not Active | Not Active | Not Active | Not Active | Not Active | Not Active | Not Active | Not Active | Not Active | Not Active | Not Active | –
2 | CN(C)[C@@H]1C(O)=C(C(N)=O)C(=O)[C@@]2(O)C(O)=C3C(=O)c4c(O)cccc4[C@@](C)(O)[C@H]3C[C@@H]12 [TETRACYCLINE] | Not Active | Not Active | Not Active | Not Active | Not Active | Not Active | Not Active | Not Active | Not Active | Not Active | Not Active | Not Active | –
3 | c1ccc2[nH]c(-c3cscn3)nc2c1 [THIABENDAZOLE] | Not Active | Not Active | Not Active | Not Active | Not Active | Not Active | Not Active | Not Active | Not Active | Not Active | Not Active | Not Active | –
4 | Cc1ccc(C(=O)C(C)CN2CCCCC2)cc1 (centres undefined) [TOLPERISONE] | – | Not Active | Not Active | Not Active | Not Active | Not Active | Not Active | Not Active | Not Active | Not Active | Not Active | Not Active | IC50 ([1]; read-out: IC50): 13 nM; Ki ([1]; read-out: Ki): 5.59 nM
5 | NC(CO)(CO)CO [TROMETHAMINE] | Not Active | Not Active | Not Active | Not Active | Not Active | Not Active | Not Active | Not Active | Not Active | Not Active | Not Active | Not Active | –
6 | CN1[C@@H]2CC[C@H]1C[C@@H](OC(=O)c1c[nH]c3ccccc13)C2 [TROPISETRON] | Not Active | Not Active | Not Active | – | – | Not Active | Not Active | Not Active | Not Active | Not Active | Not Active | Not Active | IC50 ([2]; read-out: IC50): 1140 nM; Ki ([2]; read-out: Ki): 926 nM
7 | COc1cc(C(=O)NC2CCCNC2)cc(OC)c1OC (centres undefined) [TROXIPIDE] | Not Active | Not Active | Not Active | Not Active | Not Active | Not Active | Not Active | Not Active | Not Active | Not Active | Not Active | Not Active | –
8 | CC(C)[C@H](N)C(=O)OCCOCn1cnc2c(=O)nc(N)[nH]c21 [VALACYCLOVIR] | Not Active | Not Active | Not Active | Not Active | Not Active | Not Active | Not Active | Not Active | Not Active | Not Active | Not Active | Not Active | –
9 | CN[C@H](CC(C)C)C(=O)N[C@H]1C(=O)N[C@@H](CC(N)=O)C(=O)N[C@H]2C(=O)N[C@H]3C(=O)N[C@H](C(=O)N[C@H](C(=O)O)c4cc(O)cc(O)c4-c4cc3ccc4O)[C@H](O)c3ccc(c(Cl)c3)Oc3cc2cc(c3O[C@@H]2O[C@H](CO)[C@@H](O)[C@H](O)[C@H]2O[C@H]2C[C@](C)(N)[C@H](O)[C@H](C)O2)Oc2ccc(cc2Cl)[C@H]1O [VANCOMYCIN] | Not Active | Not Active | Not Active | Not Active | Not Active | Not Active | Not Active | Not Active | Not Active | Not Active | Not Active | Not Active | –
10 | COc1ccc(C(CN(C)C)C2(O)CCCCC2)cc1 (centres undefined) [VENLAFAXINE] | Not Active | Not Active | Not Active | Not Active | Not Active | Not Active | Not Active | Not Active | Not Active | Not Active | Not Active | Not Active | –
11 | IVERMECTIN | Not Active | Not Active | Not Active | Not Active | Not Active | Not Active | Not Active | Not Active | Not Active | – | Not Active | Not Active | Ki ([1]; jurkat): Not Active; Ki [3]: Not Active; Ki (B2 bradykinin receptor): Not Active; IC50 (Glycine receptor; read-out: IC50): 375 nM; Ki (Glycine receptor; read-out: Ki): 212 nM; Ki (D(4) dopamine receptor): Not Active; Ki [5]: Not Active
